According to patent US7125911B2, “Autonomic nerve regulating agent” (Kao Corporation, priority 2000, dated 2006):

Legend:
[1] = Vapor pressure of purified cedrol by static method and gas flow method; type: physicochemical; details: ambient temperature (unheated)
Description: The vapor pressure of purified cedrol (molecular weight 222 g·mol^−1) used in the following examples was determined by a static method and a gas flow method (temperature: 22, 50, and 75° C. for solids; 100 and 125° C. for liquids).
In the static method, samples were taken from hermetically sealed containers, a constant temperature was established, and the equilibrium vapor pressure at that temperature was directly measured using a pressure gauge (OECD Test Guidelines 104: Static Measurement of Vapor Pressure).
In the gas flow method, carrier gas (nitrogen gas) was allowed to flow so as to come into contact with a solid or liquid sample at a certain temperature to saturate the sample vapor, and the vapor density (vaporization quantity/volume) was measured so as to determine the vapor pressure hypothetically in accordance with ideal gas principles. The vapor density herein referred to is calculated from the sample vaporization rate (rate of loss) determined using an electrical balance, and the carrier gas flow rate determined using a flow rate gauge. However, since the sample vapor saturation is usually incomplete, the vapor density level is dependent on flow rate, so the vapor density was measured at varying flow rates for extrapolation to a zero flow rate to determine the saturated vapor density. […]

[2] = system: women in their twenties complaining of fatigue (sympathetic overactivity); assay: Inhalation of cedrol for 30 seconds with ECG, blood pressure and respiration monitoring (Example 1); type: in vivo, human; details: after vs before inhalation, 10 wt % in dipropylene glycol, significance 5%
Description: The subjects were ten women in their twenties complaining of fatigue (sympathetic overactivity), who were asked to inhale, for 30 seconds, cedrol dissolved in dipropylene glycol (10 wt % concentration), while ECG at rest (chest V5 lead), blood pressure (tonometry), and respiration (pulmonary volume instantaneously measured by respiratory rate sensor) were monitored. The changes in parameters before and after measurement were compared. Frequency analysis of R—R interval fluctuations was performed for low frequency components integrating amplitudes 0.02 to 0.12 Hz (sum of low frequency: Lsum) and high frequency components integrating amplitudes 0.12 to 2.00 Hz (sum of high frequency: Hsum) using the rapid Fourier transform. As used here, the Hsum is an indicator of parasympathetic nervous activity, and the Lsum/Hsum is an indicator of sympathetic nervous activity.
The measurement results were statistically analyzed by Welch's t-test or Student's t-test based on the F test.

[3] = system: insomniac women in their twenties (parasympathetic predominance to excess); assay: Inhalation of cedrol for 30 seconds with ECG, blood pressure and respiration monitoring (Example 2); type: in vivo, human; details: after vs before inhalation, insomniac subjects
Text: The subjects were ten insomniac women in their twenties (under considerable pressure to get to sleep, with parasympathetic predominance to excess), who were asked to inhale, for 30 seconds, cedrol dissolved in dipropylene glycol (10 wt % concentration), while ECG at rest (chest V5 lead), blood pressure (tonometry), and respiration (pulmonary volume instantaneously measured by respiratory rate sensor), and skin blood flow of forehead (measured by laser Doppler methods) were monitored. The changes in parameters before and after measurement were compared. Frequency analysis of R—R interval fluctuations and statistical analysis of the measurement results were done in the same manner as in Example 1.

[4] = system: women in their twenties suffering from poor sleep; assay: Sleep monitoring with cedrol vaporized in the room from bedtime until waking (Example 3); type: in vivo, human; details: significance 5%
Description: The subjects were ten women in their twenties suffering from poor sleep. ECG (chest V5 lead), brain waves (C3, O1 in the international 10–20 method), respiration (impedance method: abdomen and chest), superficial electromyogram (bipolar lead of left and right mentalis muscles), and ocular movement (bipolar lead without horizontally linking left and right eye-sockets) were monitored from the time the subjects went to bed until they woke in a 40 m^2 room. The cedrol was administered by placing Petri dishes filled with cedrol on 95° C. hot plates so that approximately 100 mg was vaporized per hour (about 1 ppb/hr), from the time subjects went to bed until they woke. Measurements were taken for 7 days. No administration took place on the first two days, in order to allow subjects to become acclimated to the measuring instruments and environment (control). On the third day, administration was managed without anything placed on the hot plates (placebo). After 3 days, cedrol was administered on the 7th day.
The subjects were interviewed about their condition on waking using a questionnaire based on POMS (profile of mood states) to assess mood. The changes in the parameters measured during the administration of cedrol and placebo treatment were compared.
Awakening and sleep stages were determined in accordance with international standards for determining sleep stages (Sleep Brain Wave Atlas, pp. 3–9, Ishiyaku Shuppan KK, published September, 1971, the relevant portions thereof which describe sleep analysis and standards are incorporated herein by reference). Frequency analysis of R—R interval fluctuations and statistical analysis of the measurement results were done in the same manner as in Example 1.

[5] = system: insomniac women in their fifties; assay: Sleep in a room with furnishings and bedding coated with cedrol, actigram assessment (Example 7); type: in vivo, human; details: furnishings and bedding coated with cedrol 1.5 μg/cm^2, 15th to 21st days, vs control week; p<0.01
Description: The subjects were twenty insomniac women in their fifties, while sleep was assessed from 3 hours before bed until wakening for 4 weeks in a room (sleeping room) at a temperature of 23° C. and a humidity of 50%. The first week served as a control. For the last 3 weeks, the test was conducted by replacing the curtains, wall paper, flooring, pillows, sheets, and bedding with those which had been coated with cedral (1.5 μg/cm^2).
The subjects ware actigrams for 4 continuous weeks on the opposite of their leading arm to allow assessment of the sleeping efficiency and intermittent awakening. Analyzed data for the cedrol coatings were from the 15th to 21st days following application.
Statistical analysis of the measurement results was the same as in Example 5.

[6] = within physiologically normal range, significance 5%
[7] = 7th day (cedrol) vs before administration and 3rd day (placebo treatment)
[8] = cedrol approximately 100 mg vaporized per hour vs placebo treatment

In the case of `C[C@@H]1CC[C@H]2C(C)(C)[C@H]3C[C@@]12CC[C@@]3(C)O` [cedrol], the “vapor pressure (vaporizability)” value [1] is reported as “can be vaporized at ambient temperature”, the “ECG R-R interval” value [2] is reported as “meaningfully longer” and the “Hsum (parasympathetic nervous activity indicator)” value [2] is reported as “meaningfully greater”. The “Lsum/Hsum (sympathetic nervous activity indicator)” value [2] was “meaningfully lower”, the “diastolic blood pressure (DBP)” value [2] was “meaningfully lower” and the “respiratory rate (RR)” value [2] was “meaningfully lower”. The “systolic blood pressure (SBP)” value [2] was “meaningfully lower”, the “ECG R-R interval” value [3] was “no meaningful change” and the Hsum [3] was “tended to be lower”. For the same compound, the Lsum/Hsum [3] was “tended to be higher”, the “respiratory rate (RR)” value [3] was “no meaningful difference” and the “diastolic blood pressure (DBP)” value [3, 6] was “meaningfully higher”. For the same compound, the “systolic blood pressure (SBP)” value [3, 6] was “meaningfully higher”, the POMS fatigue [4, 7] was “meaningful (5%) improvement” and the POMS tension [4, 7] was “meaningful (5%) improvement”. For the same compound, the “Hsum during non-REM sleep” value ([4]; cedrol approximately 100 mg vaporized per hour (about 1 ppb/hr) vs placebo treatment) was “meaningfully increased”, the “cumulative incidence of stages 3 and 4 of sleep” value [4, 8] was “meaningfully greater” and the “respiratory rate (RR) during non-REM sleep” value [4, 8] was “meaningfully lower”. For the same compound, the intermittent awakening [5] was “meaningfully fewer” and the sleeping efficiency [5] was “meaningfully better”.
